Data taken from patent publication US20030224978A1, “Compounds and methods for modulating apoptosis” (McGill University, priority 1996, published 2003).
Entries after “also recorded” stand apart in the source; their conditions may differ. Where two headings read alike, the source gives them in different places. Positions of bridges follow the written chain, without caps; N, C: chain ends. Residues, ends and D or L forms follow the SMILES beside them.

What was measured:
[1] = tested on: SKOV3 cells; assay: Disruption of human ovarian cancer cell (SKOV3) adhesion; assay type: cell-based; details: 0.01-1 mg/mL, up to 48 hours
From the text: Within one representative cell adhesion assay, the addition of a modulating agent to cells that express a cadherin results in disruption of cell adhesion. A “cadherin-expressing cell,” as used herein, may be any type of cell that expresses at least one cadherin on the cell surface at a detectable level, using standard techniques such as immunocytochemical protocols (Blaschuk and Farookhi, Dev. Biol. 136:564-567, 1989). Cadherin-expressing cells include endothelial (e.g., bovine pulmonary artery endothelial cells), epithelial and/or cancer cells (e.g., the human ovarian cancer cell line SKOV3 (ATCC #HTB-77)). For example, such cells may be plated under standard conditions that permit cell adhesion in the presence and absence of modulating agent (e.g., 500 μg/mL). Disruption of cell adhesion may be determined visually within 24 hours, by observing retraction of the cells from one another.
The human ovarian cancer cell line SKOV3 (ATCC #HTB-77) expresses N-cadherin. SKOV3 cells were cultured in a modified MEM-based media containing 10% FCS. Cells were grown in T-250 culture flasks and maintained by periodic subculturing. Cyclic peptides were tested on cells grown in individual wells of 96-well culture dishes (surface area of each well was 0.32 cm^2). Cells were harvested from flasks and seeded at a density of 50,000 cells per well in 0.1 mL media containing the cyclic peptides at concentrations of 1, 0.1, or 0.01 mg/mL, or in the absence of cyclic peptide. Media control wells were also established. Cultures were evaluated periodically by microscopic examination under both bright field and phase contrast conditions. Cultures were maintained for 48 hours.

[2] = tested on: HMVEC; assay type: cell-based, human; details: 3 h
Description: (§1) N-Ac-CHAVC-NH2 (SEQ ID NO:10) and the control peptide N-Ac-CHGVC-NH2 (SEQ ID NO:20) were evaluated for possible cytotoxic effects on human microvascular endothelial (HMVEC; Clonetics), human umbilical vein endothelial (HUVEC; ATCC #CRL-1730), IAFp2 (human fibroblast cell line; Institute Armand-Frapier, Montreal, Quebec), WI-38 (human fibroblast cell line; ATCC #CCL-75), MDA-MB231 (human breast cancer cell line; ATCC #HTB-26), and PC-3 (human prostate cancer cell line; ATCC #CRL-1435) cells utilizing the MTT assay (Plumb et al., Cancer Res. 49:4435-4440, 1989). Neither of the peptides was cytotoxic at concentrations up to and including 100 μM. Similarly, neither of the peptides was capable of inhibiting the proliferation of the above cell lines at concentrations up to 100 μM, as judged by ^3H-thymidine incorporation assays.

[3] = tested on: IAFp2; assay type: cell-based, human; details: 3 h
Description: as §1

[4] = tested on: PC-3; assay type: cell-based, human; details: 3 h
Description: as §1

[5] = tested on: WI-38; assay type: cell-based, human; details: 3 h
Description: as §1

[6] = in vitro; assay type: cell-based; details: human
Description: as §1

[7] = in vitro; assay type: cell-based; details: human; remark: listed apart in the source
Description: as §1

[8] = in vitro; assay type: cell-based; details: human; remark: listed apart in the source
Description: as §1

[9] = in vitro; assay type: cell-based; details: human; remark: listed apart in the source
Description: as §1

[10] = tested on: MDA-MB231; assay type: cell-based; details: human
Description: as §1

[11] = tested on: PC-3; assay type: cell-based; details: human
Description: as §1

[12] = molecular target: T1, chick N-cadherin (Gallus gallus, UniProt P10288); assay: N-cadherin dependent neurite outgrowth of rat cerebellar neurons on N-cadherin expressing 3T3 cells (Example 14); assay type: cell-based
T1 construct: expressed in transfected cells; host or cells: 3T3 fibroblasts
T1 sequence (P10288 165-912): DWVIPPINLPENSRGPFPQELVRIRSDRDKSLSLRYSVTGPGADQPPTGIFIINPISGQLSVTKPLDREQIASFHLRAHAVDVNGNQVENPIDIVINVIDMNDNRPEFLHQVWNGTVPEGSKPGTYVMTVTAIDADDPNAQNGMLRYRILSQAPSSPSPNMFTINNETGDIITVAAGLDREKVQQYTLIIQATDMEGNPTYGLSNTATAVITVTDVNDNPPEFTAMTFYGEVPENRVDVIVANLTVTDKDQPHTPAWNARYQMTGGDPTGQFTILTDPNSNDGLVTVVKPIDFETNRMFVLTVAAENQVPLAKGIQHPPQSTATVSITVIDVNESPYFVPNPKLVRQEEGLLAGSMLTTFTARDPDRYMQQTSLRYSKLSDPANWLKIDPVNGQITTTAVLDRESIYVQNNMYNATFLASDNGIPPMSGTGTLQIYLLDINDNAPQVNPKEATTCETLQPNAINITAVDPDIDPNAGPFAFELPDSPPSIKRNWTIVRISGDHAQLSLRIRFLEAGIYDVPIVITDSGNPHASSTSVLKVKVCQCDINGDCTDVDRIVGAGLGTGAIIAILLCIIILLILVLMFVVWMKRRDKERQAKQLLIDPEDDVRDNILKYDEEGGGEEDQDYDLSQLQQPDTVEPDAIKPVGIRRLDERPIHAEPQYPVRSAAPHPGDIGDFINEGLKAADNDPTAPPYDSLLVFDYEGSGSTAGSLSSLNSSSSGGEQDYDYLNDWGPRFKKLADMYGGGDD
Description: (§2) Cell culture and neurite outgrowth assays. Co-cultures of cerebellar neurons on monolayers of control 3T3 cells and monolayers of transfected 3T3 cells that express physiological levels of chick N-cadherin or human L1 were established as previously described (Williams et al., Neuron 13:583-594, 1994). In brief, 80,000 3T3 cells (control and transfected) were plated into individual chambers of an eight-chamber tissue culture slide coated with polylysine and fibronectin and cultured in DMEM/10% FCS. After 24 hours, when confluent monolayers had formed, the medium was removed and 3000 cerebellar neurons isolated from post-natal day 2-3 rats were plated into each well in SATO media (Doherty et al., Nature 343:464-466, 1990) supplemented with 2% FCS. All of the test peptides were added immediately before the neurons as a 2×stock prepared in SATO/2% FCS. The co-cultures were maintained for 16-18 hours, at which time they were fixed and immunostained for GAP-43 which is present only in the neurons and delineates the neuritic processes. The mean length of the longest neurite per cell was measured for 150-200 neurons sampled in replicate cultures as previously described (Williams et al., Neuron 13:583-594, 1994). […] Dose-response curves were evaluated and the EC50 values determined.
Effects of cyclic HAV peptides on N-cadherin function. The ability of N-Ac-CHAVC-NH2 (SEQ ID NO:10; compound 1) to inhibit neurite outgrowth was initially tested. This cyclic peptide has the cadherin CAR sequence (HAV) and no flanking amino acid residues. Neurons were cultured on confluent monolayers of control (untransfected) and N-cadherin expressing 3T3 cells for 16-18 hours. The cells were then fixed and the length of the longest neurite on 150-200 neurons was determined by standard assay, as described above. FIG. 24 gives the mean neurite length in a representative experiment where cerebellar neurons have been cultured over control and N-cadherin expressing cells. In the absence of peptide, the mean length of the longest neurite per cell was approximately double on the N-cadherin expressing cells, as compared to 3T3 cells. This response requires N-cadherin function in both the neuron and transfected fibroblast.

[13] = molecular target: L1 (Homo sapiens, UniProt P32004); assay: L1 response: neurite outgrowth of rat cerebellar neurons on L1 expressing 3T3 cells (Example 14); assay type: cell-based; design: expressed in transfected cells; host or cells: 3T3 cells (stably transfected); details: 100 μg/mL, concentrations that substantially inhibited the N-cadherin response
Description: FIG. 26 is a bar graph illustrating the effects of the cyclic peptides N-Ac-CHAVDC-NH2 (SEQ ID NO:11), N-Ac-CHAVDIC-NH2 (SEQ ID NO:62) and N-Ac-[…]-NH2 (SEQ ID NO:63) on L1 function. Cerebellar neurons were cultured on monolayers of control 3T3 cells and L1 expressing 3T3 cells for 16-18 hours in control media (unshaded) or control media supplemented with peptides N-Ac-CHAVDC-NH2 (SEQ ID NO:11; diagonal rising right), N-Ac-CHAVDIC-NH2 (SEQ ID NO:62); diagonal cross hatch) or N-Ac-[…]-NH2 (SEQ ID NO:63; diagonal rising left) at a concentration of 100 μg/mL. The cultures were then fixed and neurite outgrowth determined by measuring the length of the longest neurite from a total of 150-200 neurons sampled in replicate cultures for each experimental condition. […] The results are pooled from three independent experiments, and the bars show the s.e.m.
as §2, with “The co-cultures were maintained for 16-18 hours, at which time they were fixed and immunostained for GAP-43 which is present only in the neurons and delineates the neuritic processes.” left out, “determined. […]” for “determined.”

Sequence of L1 (P32004 20-1257): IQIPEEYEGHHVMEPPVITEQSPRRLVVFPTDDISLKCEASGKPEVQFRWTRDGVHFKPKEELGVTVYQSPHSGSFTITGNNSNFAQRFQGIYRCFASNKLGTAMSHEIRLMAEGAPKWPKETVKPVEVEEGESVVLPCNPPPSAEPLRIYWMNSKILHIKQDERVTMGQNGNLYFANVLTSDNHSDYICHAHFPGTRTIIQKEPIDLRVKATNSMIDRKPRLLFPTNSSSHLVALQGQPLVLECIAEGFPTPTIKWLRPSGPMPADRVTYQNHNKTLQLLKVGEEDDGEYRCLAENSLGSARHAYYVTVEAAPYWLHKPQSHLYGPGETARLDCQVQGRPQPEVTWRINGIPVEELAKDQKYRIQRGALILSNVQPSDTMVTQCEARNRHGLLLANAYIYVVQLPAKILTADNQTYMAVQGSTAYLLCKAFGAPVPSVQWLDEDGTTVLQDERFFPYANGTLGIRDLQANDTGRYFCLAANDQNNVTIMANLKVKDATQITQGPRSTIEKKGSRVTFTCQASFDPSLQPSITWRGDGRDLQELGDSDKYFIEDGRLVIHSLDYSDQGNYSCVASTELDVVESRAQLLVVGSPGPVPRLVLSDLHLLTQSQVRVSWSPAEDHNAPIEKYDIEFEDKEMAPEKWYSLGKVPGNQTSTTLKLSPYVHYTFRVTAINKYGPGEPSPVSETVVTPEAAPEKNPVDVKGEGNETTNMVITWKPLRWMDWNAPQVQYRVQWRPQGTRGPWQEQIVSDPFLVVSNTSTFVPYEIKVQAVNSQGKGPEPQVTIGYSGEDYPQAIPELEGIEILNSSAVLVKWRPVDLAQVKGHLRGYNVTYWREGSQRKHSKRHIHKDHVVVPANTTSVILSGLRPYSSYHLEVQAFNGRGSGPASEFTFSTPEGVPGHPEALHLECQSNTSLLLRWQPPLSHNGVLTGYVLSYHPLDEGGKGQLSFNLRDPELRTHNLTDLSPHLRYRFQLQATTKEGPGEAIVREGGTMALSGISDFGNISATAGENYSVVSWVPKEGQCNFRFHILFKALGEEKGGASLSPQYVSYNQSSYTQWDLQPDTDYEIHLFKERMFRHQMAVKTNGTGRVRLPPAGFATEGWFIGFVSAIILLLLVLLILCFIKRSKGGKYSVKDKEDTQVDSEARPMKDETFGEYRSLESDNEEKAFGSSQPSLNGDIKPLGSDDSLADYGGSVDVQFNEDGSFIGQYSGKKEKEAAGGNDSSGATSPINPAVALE

IC50 [2] [µM] | IC50 [3] [µM] | IC50 [4] [µM] | IC50 [6] [µM] | IC50 [7] [µM] | IC50 [8] [µM] | IC50 [9] [µM] | IC50 [10] [µM] | IC50 [11] [µM] | inhibition at 33 µg/mL ([12]; NIH3T3, 33 μg/mL) [%] | inhibition at 125 µg/mL ([12]; NIH3T3, 125 μg/mL, 16-18 hours) [%] | SMILES | activity on SKOV3 cell adhesion [1] | IC50 [5] [µM] | inhibitory activity on N-cadherin dependent neurite outgrowth, in words ([12]; Tables 8 and 9, 250 or 125 μg/mL) | effect on L1 response (neurite outgrowth over L1 expressing 3T3 cells) [13]
> 100 | > 100 | > 100 | > 100 | > 100 | > 100 | > 100 | > 100 | > 100 | – | – | CC(=O)N[C@H]1CCCCNC(=O)C[C@@H](C(N)=O)NC(=O)[C@H](C(C)C)NC(=O)[C@H](C)NC(=O)[C@H](Cc2c[nH]cn2)NC1=O (Ac-KHAVD-NH2; lactam 1-5 (inferred)) | inactive | > 100 | – | –
– | – | – | – | – | – | – | – | – | 28.5 | 77.1 ± 8.4 | CC(=O)N[C@H]1CSSC[C@@H](C(N)=O)NC(=O)[C@H](CC(=O)O)NC(=O)[C@H](C(C)C)NC(=O)[C@H](C)NC(=O)[C@H](Cc2c[nH]cn2)NC1=O [N-Ac-CHAVDC-NH2] (Ac-CHAVDC-NH2; disulfide 1-6) | – | – | dramatically increased the inhibitory activity; also recorded: potent inhibitors of neurite outgrowth | did not interfere with the ability of neurons to extend neurites over 3T3 cells expressing L1; also recorded: not inhibited
